Source: PMC9532951, “Identification and characterization of a novel SNAT2 (SLC38A2) inhibitor reveals synergy with glucose transport inhibition in cancer cells” (Frontiers in Pharmacology, 2022)
Where “and” joins values, the source holds several entries; their conditions need not be identical. Equal entries are not always repeated.

Columns and labels:
SNAT1 = molecular target: T1, SNAT1 (Homo sapiens, UniProt Q9H2H9); assay: Alanine uptake in HCC1806 D126 (ASCT2ko, SNAT2ko) cells; assay type: cell-based; details: for Alanine uptake (nmol / mg protein x 6 min): Figure 4B, replicates 1-3; for inhibition of alanine uptake: HCC1806 D126, Figure 4B, betaine and MeAIB 10 mM
T1 construct: SNAT1 remained active as indicated by the Na^+-dependence of alanine uptake; endogenous in cells; host or cells: HCC1806 clone D126 (ASCT2ko, SNAT2ko), amino acid depleted for 24 h
T1 sequence (Q9H2H9 1-487): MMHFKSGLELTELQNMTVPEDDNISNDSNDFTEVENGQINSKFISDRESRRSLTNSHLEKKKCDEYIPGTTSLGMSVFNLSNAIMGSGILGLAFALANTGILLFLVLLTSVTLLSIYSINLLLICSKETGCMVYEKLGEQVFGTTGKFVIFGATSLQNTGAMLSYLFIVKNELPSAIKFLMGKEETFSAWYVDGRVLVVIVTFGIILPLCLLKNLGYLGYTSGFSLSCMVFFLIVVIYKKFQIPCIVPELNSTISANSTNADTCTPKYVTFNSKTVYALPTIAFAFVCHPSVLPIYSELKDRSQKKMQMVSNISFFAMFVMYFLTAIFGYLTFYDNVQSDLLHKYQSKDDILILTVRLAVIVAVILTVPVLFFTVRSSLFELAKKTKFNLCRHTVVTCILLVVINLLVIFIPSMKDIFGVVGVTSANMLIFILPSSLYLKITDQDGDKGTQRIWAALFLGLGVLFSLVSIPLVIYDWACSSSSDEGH
Experimental: To delete the SNAT2 (SLC38A2) gene in modified HCC1806 cells (clone C10 nullizygous for ASCT2 ([Broer et al., 2019])), the GeneArt CRISPR Nuclease Vector with OFP Reporter Kit (Invitrogen; A21174) was employed and complementary 19–20 bp long single-stranded oligonucleotides with overhangs were designed to produce a guide RNA (gRNA) for the Cas9 nuclease that would target exon 7 of the SNAT2 gene. Colonies were analysed by sequencing using the U6 primer included in the GeneArt CRISPR Nuclease Vector with OFP Reporter kit. Plasmids that contained the correct CRISPR nuclease construct were then used to transfect HCC1806 cells with Lipofectamine 2000 (Invitrogen). Prior to transfection, medium was replaced with 2 ml of fresh DMEM/F-12 (supplemented with 10% heat-inactivated FBS and 2 mM glutamine). Plasmid DNA (4 µg) and 10 µL of Lipofectamine 2000 were incubated separately for 5 min at room temperature in 500 µl of Opti-MEM (Invitrogen) before being combined and incubated for a further 30 min at room temperature. The DNA-Lipofectamine complex was then added to the cells in a dropwise manner and allowed to be absorbed over 6 h at 37°C, after which the medium was renewed with fresh DMEM/F-12. Cells were checked for red fluorescence using an EVOS FL cell imaging system (Thermo Fisher Scientific) 48–72 h post transfection. Subsequently, cells were detached using 0.25% Trypsin EDTA. After harvesting and washing thrice with PBS (pH 7.4), cells were resuspended in PBS (pH 7.4) supplemented with 5 mM glucose and 1% dialysed and heat inactivated FBS and passed through a 100 μm cell strainer. The cell filtrate was then pelleted once more and resuspended in the same buffer. Cells were sorted using an ARIA II FACS machine and individually dispensed into the wells of a 96-well plate. Nullizygous clones were identified using a series of assays including the FLIPR membrane potential assay, western blotting and sequencing.
(§1) Functional characterisation of plasma membrane transporters in human cancer cells was determined at 37°C using an array of radiolabelled amino acid substrates. Modified Hanks HEPES-buffered salts solution (mHBSS; 137 mM NaCl; 5.4 mM KCl; 2.7 mM K2HPO4; 1 mM CaCl2; 0.5 mM MgCl2; 0.44 mM KH2PO4; 0.4 mM MgSO4; 5 mM D-glucose; 5 mM HEPES; pH 7.4) was used to wash and incubate cells where sodium dependent transport was measured, while N-methyl-D-glucamine (NMDG) and potassium salts substituted sodium in NMDG mHBSS to measure sodium independent uptake. For the assay, cells were seeded in 35 mm dishes and, once confluent, were washed thrice with warm mHBSS solution and incubated with mHBSS containing an 100 µM amino acid at a final specific activity of ≥2000 cpm/nmol (U-[^14C]amino acids were from PerkinElmer). After 6 min, cells were washed thrice with ice-cold mHBSS, lysed with 500 µl of 0.1 M HCl, detached with a cell scraper and triturated. A 400 µl aliquot was used for scintillation counting, while the remainder was saved for protein mass quantification by Bradford assay. Transport rates were normalised to the protein content of the culture dish.

SNAT2 = assay: Radiolabelled proline uptake in amino acid depleted SKOV3 cells; assay type: cell-based, human
Experimental: as §1
IC50 were calculated using equation y=ymax(1−x/x+IC50)

SNAT1 and SNAT2 = assay: High-throughput compound screen, FMP assay in 384-well format (primary, confirmatory, control compounds); assay type: cell-based, human
Experimental: For the high-throughput compound screen, the FMP assay was adapted into a 384-well format within the ANU Centre for Therapeutic Discovery. […] Compounds Australia stores compounds under robust environmental conditions and supplies them in assay ready plate format. We screened 33,934 compounds from the Collection Scaffold Library. Cells (10,000/well) were seeded into Corning 384-well black walled plates (CLS3985; Sigma-Aldrich) using a Multidrop Combi liquid dispensing robot (Thermo Fisher) in a 40 µl volume. Once seeded, cells were allowed to grow in a microplate incubator (Liconic) for 24 h at 37°C (humidified atmosphere with 95% air and 5% CO2). Subsequently, plates were washed thrice with 50 µL of mHBSS using a 405 TS washer (BioTek). Then, 50 µl of starvation medium was added and cells were incubated again for 24 h.
Assay-ready compound plates (384 well plates containing compound or DMSO controls) were then prepared prior to addition to cells. In addition to the supplied compounds, 5 µl γ-glutamyl-hydroxamate (GHX, 60 mM dissolved in mHBSS, serving as an inhibitor control) was added into inhibitor control wells using a JANUS G3 robot (PerkinElmer). Subsequently, 25 uL of mHBSS was dispensed into all wells of the 384 well plate using a Multidrop Combi. All samples were then mixed using the JANUS G3 robot and 15 µl dispensed on top of the cell monolayer to reach a final concentration of 10.05 µM.
The FMP dye was solved freshly with mHBSS, 20 µl of which was deposited into each well using the Multidrop Combi, and the cells were incubated at room temperatur for 30 min. Each plate was then placed in an EnVision microplate reader (PerkinElmer) and a single baseline measurement was taken for each well (bottom reads excitation at 531, emission at 579 nm). The plate was then transferred to the Multidrop Combi and 10 µl/well of 5 mM glutamine was dispensed into each well. After linearly shaking for 5 s, microplates were returned to the EnVision microplate reader for a single post-injection measurement per well. The change of fluorescence was measured after 60 s.
Z′ scores were calculated from the controls onboard each of the 384-well plates assayed in the primary and secondary screen as described by Zhang et al., ([Zhang et al., 1999]). For the control inhibitor γ-glutamyl-hydroxamate (GHX) a Z’ score of 0.717 was determined, which was a sufficient signal for a HTS.

Cc1ccc(S(=O)(=O)N(C)c2ccsc2C(=O)NCc2ccccc2C(F)(F)F)cc1 [Compound 57_E, 3-(N-methyl (4-methylphenyl)sulfonamido)-N-(2-trifluoromethylbenzyl)thiophene-2-carboxamide]
discrimination between SNAT2 and SNAT1 (SNAT1): discriminated against the close transporter homologue SNAT1
Alanine uptake (nmol / mg protein x 6 min) (SNAT1; screening compounds): 28.3148 nmol / mg protein x 6 min and 26.5203 nmol / mg protein x 6 min and 27.3289 nmol / mg protein x 6 min
inhibition of alanine uptake (SNAT1): did not inhibit alanine uptake
inhibition of proline uptake (SNAT2; 30 µM, Figure 4A): inhibition equivalent to betaine
Proline uptake (nmol / mg protein x 6 min) (SNAT2; Figure 4A, screening compounds, replicates 1-3): 12.1271 nmol / mg protein x 6 min and 12.3527 nmol / mg protein x 6 min and 11.9613 nmol / mg protein x 6 min
Proline uptake (nmol / mg protein x 6 min) (SNAT2; Figure 5B, 0.03 uM): 13.4934 nmol / mg protein x 6 min and 12.6179 nmol / mg protein x 6 min and 11.806 nmol / mg protein x 6 min and 12.3756 nmol / mg protein x 6 min
Proline uptake (nmol / mg protein x 6 min) (SNAT2; Figure 5B, 0.1 uM): 11.4589 nmol / mg protein x 6 min and 11.5974 nmol / mg protein x 6 min and 12.2114 nmol / mg protein x 6 min and 11.4952 nmol / mg protein x 6 min
Proline uptake (nmol / mg protein x 6 min) (SNAT2; Figure 5B, 0.3 uM): 9.658 nmol / mg protein x 6 min and 10.0504 nmol / mg protein x 6 min and 12.5202 nmol / mg protein x 6 min and 8.873 nmol / mg protein x 6 min
Proline uptake (nmol / mg protein x 6 min) (SNAT2; Figure 5B, 1 uM): 8.923 nmol / mg protein x 6 min and 10.4357 nmol / mg protein x 6 min and 8.533 nmol / mg protein x 6 min
Proline uptake (nmol / mg protein x 6 min) (SNAT2; Figure 5B, 3 uM): 6.737 nmol / mg protein x 6 min and 7.879 nmol / mg protein x 6 min and 6.95 nmol / mg protein x 6 min and 7.052 nmol / mg protein x 6 min
Proline uptake (nmol / mg protein x 6 min) (SNAT2; Figure 5B, 10 uM): 6.707 nmol / mg protein x 6 min and 7.214 nmol / mg protein x 6 min and 6.31 nmol / mg protein x 6 min and 7.23 nmol / mg protein x 6 min
% (delta) Fluorescence Signal (SNAT1 and SNAT2; Figure 3A, ranked hits of the high-throughput screen, FMP assay): 58.6322%

N[C@@H](CCC(=O)NO)C(=O)O [GHX, L-glutamic acid γ-monohydroxamate]
reduction of FMP signal (SNAT1 and SNAT2; 6 mM, 1 mM glutamine): 92%

C[N+](C)(C)CC(=O)O [Betaine, betaine]
Alanine uptake (nmol / mg protein x 6 min) (SNAT1; 10mM): 27.8319 nmol / mg protein x 6 min and 27.8658 nmol / mg protein x 6 min and 25.4928 nmol / mg protein x 6 min
inhibition of alanine uptake (SNAT1): not inhibited
inhibition of proline uptake (SNAT2; 10 mM, 100 µM proline, Figure 4A (24 h starvation)): 30%
inhibition of proline uptake (SNAT2; 10 mM, Figure 4D (15 h starvation)): 60%
Proline uptake (nmol / mg protein x 6 min) (SNAT2; Figure 4A, 10mM, replicates 1-3): 14.3516 nmol / mg protein x 6 min and 14.2805 nmol / mg protein x 6 min and 13.5695 nmol / mg protein x 6 min
Proline uptake (nmol / mg protein x 6 min) (SNAT2; Figure 5B, reference inhibitors, replicates): 7.636 nmol / mg protein x 6 min and 7.165 nmol / mg protein x 6 min and 7.435 nmol / mg protein x 6 min and 7.421 nmol / mg protein x 6 min
